{"source": "patent US9193819B2", "about": "“Polymers, substrates, methods for making such, and devices comprising the same” (Avertica, Inc., priority 2013, dated 2015)", "note": "Structures can show the parent of a compound that is named as a salt.", "data": [{"test_system": "mushroom tyrosinase (polyphenol oxidase) Sigma T3824", "experiment": "Testing of polymer production in enzymatic tyrosinase (polyphenol oxidase) reaction", "assay_type": "biochemical", "parameters": "key: +++: Reacted within about 1 hour; ++: reacted within about 3 hours; +: reacted within about 24 hours; +/−: inconclusive results; −: no reaction", "settings": "approx. 50 mM potassium phosphate buffer pH 6.5, approx. 5 mM substrate, 100 to 10,000 units enzyme, observed over 24 hours", "experimental": "(§1) All reactions were carried out in approximately 50 mM potassium phosphate buffer, pH 6.5 with approximately 5 mM substrate and mushroom tyrosinase (polyphenol oxidase) Sigma T3824 in an amount of 100 to 10,000 units. Reaction volumes varied from 200 μl to 2 ml. In cases where substrates were not completely solubilized, then a saturated solution was used as the limit of solubility. In some cases, a solution of DMSO was used to increase solubility of the substrates. […] The reactions were observed over a 24 hour period for the production of polymers, and the presence and color of polymer and solution was recorded.\n(§2) The production of polymers in each reaction was visible as a precipitate in the well of a 96 well plate or in the reaction mixture on a glass slide.", "values": [{"molecule": "Oc1ccc2cc(O)ccc2c1", "note": "[2,6 dihydroxnaphthalene]", "Result (polymer production in tyrosinase reaction)": "+ (reacted within about 24 hours)"}, {"molecule": "Oc1ccc2[nH]ccc2c1", "note": "[5-hydroxyindole]", "Result (polymer production in tyrosinase reaction)": "+++ (Reacted within about 1 hour)"}, {"molecule": "Oc1ccc2cc[nH]c2c1", "note": "[6 Hydroxyindole]", "Result (polymer production in tyrosinase reaction)": "++ (reacted within about 3 hours)"}, {"molecule": "Cl.NCCc1ccccc1", "note": "[Beta phenylethylamine HCL]", "Result (polymer production in tyrosinase reaction)": "+/−"}, {"molecule": "c1ccc2[nH]ccc2c1", "note": "[Indole]", "Result (polymer production in tyrosinase reaction)": "−"}, {"molecule": "CN[C@@H](Cc1ccc(O)cc1)C(=O)O", "note": "[N-methyl tyrosine]", "Result (polymer production in tyrosinase reaction)": "++ (reacted within about 3 hours)"}, {"molecule": "Cl.NCCc1ccc(O)cc1", "note": "[Tyramine HCl]", "Result (polymer production in tyrosinase reaction)": "+++ (Reacted within about 1 hour)"}, {"molecule": "NCCc1ccc(O)cc1", "note": "[Tyramine]", "Result (polymer production in tyrosinase reaction)": "+++ (Reacted within about 1 hour)"}, {"molecule": "N[C@@H](Cc1ccc(O)cc1)C(=O)O", "note": "[Tyrosine]", "Result (polymer production in tyrosinase reaction)": "++ (reacted within about 3 hours)"}]}, {"test_system": "mushroom tyrosinase (polyphenol oxidase) Sigma T3824", "experiment": "Testing of polymer production in enzymatic tyrosinase (polyphenol oxidase) reaction", "assay_type": "biochemical", "parameters": "key: +++: Reacted within about 1 hour; ++: reacted within about 3 hours; +: reacted within about 24 hours; +/−: inconclusive results; −: no reaction", "settings": "as E1, substrate (or a marked component) dissolved in 20% DMSO", "experimental": "as §1, §2", "values": [{"molecule": "Oc1ccc(-c2cc(-c3ccc(O)cc3)cc(-c3ccc(O)cc3)c2)cc1", "note": "[1,3,5 Tris(4hydroxyphenyl)benzene]", "Result (polymer production in tyrosinase reaction)": "+ (reacted within about 24 hours)"}, {"molecule": "Oc1ccc2c(c1)[nH]c1ccccc12", "note": "[2 Hydroxy carbazole]", "Result (polymer production in tyrosinase reaction)": "−"}, {"molecule": "CC1=NCCc2c1[nH]c1cc(O)ccc21", "note": "[Harmalol HCl dehydrate]", "Result (polymer production in tyrosinase reaction)": "−"}]}]}
